The values below come from ChEMBL document CHEMBL1157539, “Thousands of chemical starting points for antimalarial lead identification” (Nature, 2010).

In this experiment the test system is Plasmodium falciparum. Description: GSK_TCMDC: Inhibition of Plasmodium falciparum 3D7 in whole erythrocytes, using parasite LDH activity as an index of growth. Type of experiment: functional, organism-based. The note with it: Plasmodium falciparum, 3D7.
Compound `CCN1CCC(N(Cc2ccc(-c3ccc(C(F)(F)F)cc3)o2)C(=O)Cn2c(CCc3cccc(F)c3F)nc(=O)c3ccccc32)CC1` had an XC50 of 1.14 µM.

`CCN(CC)CCN(Cc1ccc(-c2ccc(C(F)(F)F)cc2)cc1)C(=O)Cn1c(CCc2cc(F)cc(F)c2)nc(=O)c2ccccc21` returned an XC50 of 0.983 µM.

On to `O=C(Cn1c(CCc2cccc(F)c2F)cc(=O)c2ccccc21)N(CCN1CCCC1)Cc1ccc(-c2ccc(C(F)(F)F)cc2)cc1`, for which the XC50 stood at 0.859 µM.

Regarding `Cc1ccc(Oc2ccc(NC(=O)CNc3ccccc3N3CCCC3=O)cc2)cc1`, the XC50 worked out at 0.366 µM.

For the compound `COCCCNc1sc(S(=O)(=O)c2ccccc2)nc1S(=O)(=O)c1ccc(Cl)cc1`, the XC50 amounted to 0.877 µM.

For `OC1=C2C(=Nc3ccccc3SC2c2ccccc2)c2ccccc21` (stereo unspecified), the XC50 was found to be 0.325 µM.

As for `NC1=NC(c2ccccc2)N(c2ccc(Cl)c(Cl)c2)C(N)=N1` (stereo unspecified), the XC50 turned out to be 0.0146 µM.

On to `CN1CCCC(CN2CCN(Cc3cccc(-c4ccc(-c5nc6ccccc6[nH]5)cc4)c3)CC2)C1` (stereo unspecified), for which the XC50 was 0.157 µM.

In the case of `CCOC(=O)c1ccc(NC(=O)Nc2ccc(-c3ccc(-c4nc5ccccc5[nH]4)cc3)cc2)cc1`, the XC50 came out at 0.0223 µM.

`COc1ccccc1CCNc1nc(C)cc(N[C@@H](CC(C)C)C(=O)NCc2cccs2)n1` gave an XC50 of 0.793 µM.

Compound `N#Cc1cccc(Nc2nccc(NCC(O)c3ccccc3C(F)(F)F)n2)c1` (stereo unspecified) had an XC50 of 0.827 µM.

Compound `O=C1C(c2ccccc2)=C(Nc2ccc(Cl)cc2)c2ccccc21` came in with an XC50 of 0.613 µM.

Regarding `CCOC(=O)c1ccc(NC(=O)Nc2cccc(-c3cccc(-c4nc5cccc(C)c5[nH]4)c3)c2)cc1`, the XC50 is 0.106 µM.

Consider `Cc1cc(NCCc2ccccc2)nc(NC(=N)Nc2cccc([N+](=O)[O-])c2)n1`, for which the XC50 stood at 0.14 µM.

For `O=C(Nc1ccc(CN2CCCCC2)cc1)c1ccc(COc2ccc([N+](=O)[O-])cc2)o1`, the XC50 worked out at 0.996 µM.

For the compound `CCc1cc(C(=O)c2cccc(C)c2)c(NC(=O)CN2CCN(C(=O)c3ccco3)CC2)s1`, the XC50 was 0.451 µM.

Take `COCCNCc1cccc(-c2ccc(CN(C(=O)NC3CCCCC3)C3CCN(Cc4ccccc4)CC3)cc2)c1`: the XC50 is 0.759 µM.

For `CN1CCC(NCc2ccc(-c3cccc(S(=O)(=O)NCCc4ccccn4)c3)cc2)CC1`, the XC50 was 0.993 µM.

In turn, `COCC(=O)N(Cc1ccccc1-c1ccc(CNCCc2ccccc2)cc1)C1CCN(Cc2ccccc2)CC1` came in with an XC50 of 0.895 µM.

As to `C=CCC1OC(=O)c2cc(OC)cc(OC)c21` (stereo unspecified), the XC50 is 0.343 µM.

Consider `Cc1cc(Cl)c(S(=O)(=O)NC2CCCC2)cc1OCC(=O)NC1CCCCC1`, for which the XC50 was found to be 0.385 µM.

`CCc1nc(N)nc(N)c1CCCOc1ccccc1Cl` returned an XC50 of 0.105 µM.

In turn, `O=C(c1ccco1)N1CCN(c2ccc([N+](=O)[O-])c(NC3CC3)c2)CC1` displayed an XC50 of 0.747 µM.

The compound `COc1ccc(CCNCCCCCCNCCc2ccc(-c3ccccc3)cc2)cc1OC` showed an XC50 of 0.958 µM.

In turn, `Clc1nc2ccccn2c1C=Cc1ccc2ccccc2n1` gave an XC50 of 0.267 µM.

On to `Brc1ccc(Nc2nc(NCc3ccccc3)c3ccccc3n2)cc1`, for which the XC50 was found to be 0.337 µM.

Turning to `CCN(CC)CCOc1cc2c(cc1Br)-c1cc(Br)c(OCCN(CC)CC)cc1C2=NO`, the XC50 worked out at 1.09 µM.

Turning to `FC(F)(F)c1ccc2[nH]c(-c3ccc(-c4cccc(CNCCN5CCNCC5)c4)s3)nc2c1`, the XC50 amounted to 1.04 µM.

In the case of `CS(=O)(=O)c1ccccc1CNC(=O)c1cccc(-c2ccc(-c3nc4cc(C(F)(F)F)ccc4[nH]3)cc2)c1`, the XC50 amounted to 0.809 µM.

In the case of `Oc1ccc2[nH]c(-c3ccc(OC(F)(F)F)cc3)nc2c1CNC1CCCC1`, the XC50 was determined as 1.75 µM.

On to `CCCCc1ccc(Cc2cnc3nc(N)nc(N)c3c2C)cc1`, for which the XC50 amounted to 0.235 µM.

As to `Cc1cnc(NCC2CCCCC2)nc1NCC(=O)Nc1ccccc1`, the XC50 is 0.714 µM.

On to `COc1ccc(CN(C)CCCc2ccc(NC(=O)Cc3ccc4nc(-c5ccccc5)ccc4c3)cc2)cc1OC`, for which the XC50 was 0.534 µM.

As for `Cc1cccc2nc(-c3ccc(-c4cccc(CNCCCNS(C)(=O)=O)c4)cc3)[nH]c12`, the XC50 is 1.22 µM.

Regarding `O=C1CCCN1CCCNCc1ccc(-c2ccc(-c3nc4cc(F)ccc4[nH]3)s2)cc1`, the XC50 stood at 0.896 µM.

Compound `COc1ccc(CCN2CCC(CN(C)Cc3cnn(-c4ccccc4)c3)CC2)cc1` gave an XC50 of 1.16 µM.

As to `COc1cc(Br)ccc1N1CCN(CCCCNC(=O)c2ccc(NC(=O)c3ccc(Cl)cc3)cc2)CC1`, the XC50 is 0.758 µM.

As to `CO/C(=C\C=C\c1cc2cc(Cl)c(Cl)cc2[nH]1)C(=O)NCC(C)(C)CN(C)C`, the XC50 turned out to be 1.16 µM.

`O=C(/C=C/c1ccc(Cl)c(Cl)c1)NCCCCCN1CCCC(C(=O)Nc2cccc(Cl)c2)C1` (stereo unspecified) came in with an XC50 of 0.895 µM.

In turn, `Cc1nc(NC(=N)N)nc2ccc(C(C)(C)C)cc12` yielded an XC50 of 0.747 µM.

Compound `O=C(Nc1cc(F)cc(F)c1)N1CCOC(CCN2CCC3(CCc4ccccc43)CC2)(c2ccc(Cl)c(Cl)c2)C1` (stereo unspecified) displayed an XC50 of 0.275 µM.

On to `CCCn1c(O)nnc1SCC(=O)Nc1cc(C(F)(F)F)ccc1Cl`, for which the XC50 was found to be 0.222 µM.

For `NCC1CCCN1Cc1ccc(-c2cccc(-c3nc4cc(C(F)(F)F)ccc4[nH]3)c2)cc1` (stereo unspecified), the XC50 was determined as 0.833 µM.

For the compound `Cc1csc(-c2nc(NCc3cccnc3)ncc2-c2ccsc2)n1`, the XC50 was found to be 1.19 µM.

The compound `Cc1cccc(-c2ccc(CNC3CCN(CC4Cn5c(=O)ccc6ccc(F)c4c65)CC3)cn2)c1` (stereo unspecified) returned an XC50 of 1.53 µM.

`COc1cccc(C(=O)Nc2ccc(Nc3nc(C)cc(N(C)C)n3)cc2)c1OC` showed an XC50 of 1.02 µM.

Take `CCCNc1ccc(-c2cc(C(N)=O)c3[nH]cc(C4CCN(S(=O)(=O)CC)CC4)c3c2)cn1`: the XC50 is 0.817 µM.

On to `COc1cccc(C=Cc2nc(=O)c3ccccc3o2)c1OC`, for which the XC50 is 0.0644 µM.

Regarding `Cc1cccc2nc(-c3ccc(-c4cccc(NC(=O)c5cccc(C(N)=O)c5)c4)cc3)[nH]c12`, the XC50 was found to be 1.13 µM.

`Cc1ccc(C(=O)NCC2CCN(c3ccc(C(F)(F)F)cc3NC(=O)c3ccco3)CC2)cn1` displayed an XC50 of 0.782 µM.

In turn, `CCCCCCNc1c2ccccc2nc2ccccc12` had an XC50 of 0.949 µM.

The compound `CC(C)(C)c1ccc(CNC(=O)c2cc(CNC3CCNCC3)ccc2O)cc1` displayed an XC50 of 0.71 µM.

`Fc1ccc(Nc2ccnc3cc(-c4ccc(CN5CCOCC5)o4)ccc23)c(Cl)c1` showed an XC50 of 0.756 µM.

`O=C(Nc1ccc(C(F)(F)F)cc1)c1ccc(S(=O)(=O)NC2CCN(CC3CCCCC3)CC2)cc1` yielded an XC50 of 0.731 µM.

Compound `CC(C)CCN(Cc1cncn1Cc1cccc(C(F)(F)F)c1)C(=O)c1ccccc1C#N` gave an XC50 of 0.614 µM.

For `CCOCCCn1c(=N)c(C(=O)NC(C)c2ccccc2)cc2c(=O)n3cccc(C)c3nc21` (stereo unspecified), the XC50 was determined as 1.2 µM.

On to `O=C(NCCCCN1CCC(c2ccc3c(c2OCCO)CCCC3)CC1)c1ccc(-c2ccc(C(F)(F)F)cc2)cc1`, for which the XC50 came to 0.855 µM.

`N#Cc1ccc2c(c1)CCN(CCC1CCC(NC(=O)c3cc4cccc([N+](=O)[O-])c4[nH]3)CC1)C2` (stereo unspecified) returned an XC50 of 0.684 µM.

`CC(Cc1ccc(OCc2ccccc2)c(Cl)c1)NCC(O)c1cccc(C(F)(F)F)c1` (stereo unspecified) registered an XC50 of 0.94 µM.

`CC(C)(C)c1ccc(C(=O)Nc2ccc3nc4c(c(N)c3c2)CCCC4)cc1` yielded an XC50 of 0.175 µM.

Regarding `COc1ccc(OC)c(-c2cccc(-c3cccc(NC(=O)c4ccc([N+](=O)[O-])o4)c3)n2)c1`, the XC50 is 0.371 µM.

Compound `COc1cc2nc(NCCc3ccccc3)nc(NCCc3ccccc3)c2cc1OC` registered an XC50 of 0.282 µM.

The compound `Oc1ccc(CCNc2nc(NCCCOc3cccc(CN4CCCCC4)c3Cl)nc(N3CCNCC3)n2)cc1` had an XC50 of 1.37 µM.

`O=C(N[C@@H](Cc1ccccc1)C(=O)O)c1cc(-c2ccc(F)cc2)no1.O=C(N[C@@H](Cc1ccccc1)C(=O)O)c1conc1-c1ccc(F)cc1` displayed an XC50 of 0.802 µM.

As to `CCc1c(C)c(C#N)c2nc3ccccc3n2c1NCc1ccco1`, the XC50 worked out at 0.698 µM.

Compound `CC(C)(C)c1ccc(CN2CCC(CNC(=O)c3cc(-c4ccccc4Cl)cs3)C2)cc1` (stereo unspecified) displayed an XC50 of 0.856 µM.

Regarding `CC(C)CNCc1cccc(-c2cccc(CN(C(=O)c3cccs3)C3CCN(Cc4ccccc4)CC3)c2)c1`, the XC50 was found to be 0.896 µM.

In turn, `CN(C)c1cccc2c1nc(-c1ccc3c(c1)CCO3)n2CCNCc1ccccc1` registered an XC50 of 0.734 µM.

In turn, `N#Cc1cccc(CN2CCCN(Cc3cccc(C(=O)Nc4ccc(Cl)cc4)c3)CC2)c1` yielded an XC50 of 1.18 µM.

`COc1ccc(C2CC(=O)C3=C(C2)NC(C)=C(C(=O)OC(C)C)C3c2c(F)cccc2Cl)cc1OC` (stereo unspecified) gave an XC50 of 0.824 µM.

On to `COc1cccc(C23NC(=Nc4nc5ccccc5[nH]4)NC2(c2cccc(OC)c2)NC(=Nc2nc4ccccc4[nH]2)N3)c1` (stereo unspecified), for which the XC50 was found to be 0.157 µM.

With `Cc1cc(N2CCN(CC3CCN(C)CC3)CC2)nc(Nc2ccc(Br)cc2)n1`, the XC50 was determined as 0.443 µM.

Consider `CC(=O)Nc1ccc(CN2CCC(NC(=O)c3ccc(-c4cccc(Cl)c4)s3)CC2)cc1`, for which the XC50 was 0.792 µM.

As to `N#Cc1ccc(N2CCN(Cc3cccc(-c4cccc(-c5nc6cc(F)ccc6[nH]5)c4)c3)CC2)nc1`, the XC50 worked out at 0.959 µM.

`Cc1ccc(C)c(Cn2c(N3CCC(C(=O)NCc4cccs4)CC3)nc3ccccc32)c1` gave an XC50 of 0.938 µM.

For `O=C(Nc1ccc(-c2ccc(CN3CCNCC3)cc2)cc1)c1cccc(Cl)c1`, the XC50 was determined as 0.894 µM.

With `CCCCC/C=C/C(=O)NC1CCC(CN2CCC(c3c[nH]c4ccccc34)CC2)CC1` (stereo unspecified), the XC50 worked out at 0.982 µM.

Consider `CCOC(=O)c1ccc(OCc2ccc(-c3ccccc3)cc2)cc1`, for which the XC50 worked out at 0.813 µM.

As for `CN(C)CCCOc1ccc(-c2csc(NC(=N)NCc3ccccc3)n2)cc1`, the XC50 was determined as 0.278 µM.

Take `CCN(CCCN1CCCCC1)c1cc(C)nc(Nc2ccc(C)cc2Br)n1`: the XC50 amounted to 0.172 µM.

`COc1ccc2nccc([C@@H](O)CN3CCC(NC[C@H](Cc4ccccc4)NC(=O)OC(C)(C)C)CC3)c2c1` displayed an XC50 of 0.228 µM.

Turning to `O=C(Nc1ccc(OC2CCN(Cc3ccsc3)CC2)c(Cl)c1)c1cccs1`, the XC50 was 0.6 µM.

With `O=C(/C=C/c1ccc(F)cc1)NC1CCC(CCN2CCCN(c3ccc(C(F)(F)F)cn3)CC2)CC1` (stereo unspecified), the XC50 amounted to 1.08 µM.

`COc1ccc2[nH]c(C(=O)Nc3ccc4[nH]c(-c5ccccc5)nc4c3)cc2c1`: the XC50 stood at 0.834 µM.

Turning to `COc1ccccc1N1CCN(CCCCNC(=O)c2ccc(NC(=O)c3ccc(C(F)(F)F)cc3)cc2)CC1`, the XC50 is 0.304 µM.

`COC(=O)C(NC(=O)NC1CCN(c2ccnc(Nc3ccc(F)cc3)n2)C1)c1ccccc1` (stereo unspecified) yielded an XC50 of 1.05 µM.
